Reference: article PMC5761851, “Application of a phenotypic drug discovery strategy to identify biological and chemical starting points for inhibition of TSLP production in lung epithelial cells” (PLoS ONE, 2018)
Several values for one entry are separate records, joined by “and”; a condition that tells them apart may be missing. Equal values may be shown once. Read-outs that look alike come from different tables or passages of the source. One block for each compound: values may come before it.

Experiments:
CHO-K1 cells = assay: CHO-K1 viability (ATPlite); format: cell-based
Experimental: The viability of NHBE and CHO-K1 cells was quantified using ATP as an indirect read out of the potential cytotoxicity of the compounds. […] Plates were shaken and covered with aluminium foil for 25 min. Luminescence was measured in an Envision reader (Perkin Elmer). Evaluation of viability in CHO-K1 cells was used as an internal compound cytotoxicity standard across cellular assays. […] The plates were incubated for 24 h at 37°C in 5% CO2. After the incubation period, the culture medium was removed and washed with 100 μl of DPBS. Test compounds were dissolved and serially diluted in 100% DMSO. A final 1/100 dilution of each concentration was performed using F12 culture medium with 0.5% FBS. A volume of 100 μl culture medium containing the compounds or 1% DMSO (for control wells) was added to the wells containing the cells and the plate was incubated again 24h. After 24h of compound exposure, cells were washed with DPBS. Then, 100 μl of PBS were added, followed by the addition of 100 μl of ATPlite™ reagent. The plate was shaken for 25 minutes using a microtiter plate shaker. Luminescence was measured using a Luminoskan Ascent luminometer (Thermo Fisher Scientific).
For CHO-K1 viability assays, a standard curve of cells was included in the plate. Luminescence values versus cell number were plotted and the data adjusted to a linear equation. Luminescence values of the samples were interpolated to obtain number of cells. IC50 values were obtained by non-linear regression using Activity Base software (IDBS) and a four-parameter log equation.

[1] = test system: TSLP production in NHBE cells; assay: TSLP HTRF assay (TSLP production in poly I:C / IL-4 stimulated NHBE cells); format: cell-based, human; parameters: Inhibition of TSLP production in NHBE (% as indicated): concentration or dose not given beside the values
Experimental: For dose response curves determinations, stocks of test compounds at a concentration of 1.33x10^-3 M in DMSO were sequentially diluted at 1:4 dilution steps before further 1/50 dilution in BEBM medium containing 1x ITS and 0.1% BSA. For the highest 4 μM concentration test compounds were resuspended in DMSO at a concentration of 2.5x10^-3 M and diluted 1/25 in BEBM medium containing 1x ITS and 0.1% BSA before adding 1 μl to the wells containing the cells.
All subsequent steps were automated using a Sciclone® G3 workstation (Perkin Elmer) with a Twister™ II robot (Perkin Elmer). […] 1 μl of test compound solution prepared at 25x concentration was added to the wells containing NHBE cells. The plates were then incubated during 90 minutes at 37°C, 5% CO2, 90% humidity before adding poly I:C (Invivogen HMW Tirl-pic-5) and human IL-4 (Peprotech 200–04) stimulus in 4 μl of BEBM medium containing 1x ITS, 0.1% BSA and 0.1% DMSO using a Multidrop™. […] Cells were then incubated for 24h in the presence of test compounds and stimulus at 37°C, 5% CO2 and 90% humidity conditions. After the 24h incubation period the plates were transferred to a CyBi®-Well platform (CyBio AG) to collect 10 μl of the supernatants which were transferred to a new plate. TSLP levels in the supernatant were determined using a homogeneous Time-Resolved Fluorescence (HTRF) assay custom developed by Cisbio. The assay was based in the use of a donor dye (europium cryptate) coupled to a monoclonal anti-TSLP antibody and an acceptor dye (d2) coupled to a second polyclonal anti-TSLP antibody. […] 10 μl of the resulting solution was then used to determine TSLP levels as described above.
The standard curve was built with eight points prepared in ITS/BSA in BEBM medium without supplements, starting at 700 pg/ml and diluted 1:2, with medium alone being zero TSLP. Fitting model corresponded to equation 100 of Excel fit software. Data from the primary phenotypic screen was visualized using Vortex (Dotmatics). […] For compound selection the maximum inhibition of the two individual duplicate values was taken into account. Dose response confirmation was performed at single point in the 2 donors tested. 9 point curves were run starting at 4 μM concentration by doing serial 1:4 dilutions in cells derived from both donors.

mTOR = biological target: T1, mTOR (Homo sapiens, UniProt P42345); details: read-out: reported kinase inhibitory activity (IC50); cited from earlier work
T1 construct: Eurofins Pharma Discovery Services (contract assay service)

[2] = test system: TSLP mRNA levels in NHBE cells; assay: TSLP mRNA real-time PCR (qPCR) in NHBE cells; format: cell-based, human; parameters: TSLP mRNA upregulation (% versus control) / % Inhibition of mRNA: dose or concentration left out as unconfirmed; details: for % Inhibition of mRNA at [4 μM] ± SD: NHBE donor #1, 6 h stimulation; for % Inhibition of mRNA: individual values, donor #1
LAD2 cells degranulation = assay: Syk dependent LAD2 cells degranulation; format: cell-based, human
Experimental: Normal human bronchial epithelial cells (NHBE) (Lonza CC-2540,) corresponding to 2 different lots derived from 2 human healthy donors, henceforth referred to as donors #1 and #2, were purchased from Lonza, who provided the cells after obtaining permission for use in research applications by informed consent. Cells were cultured in 5% CO2 at 37°C according to the manufacturer´s instructions using Lonza´s Bronchial Epithelial Basal Medium (BEBM) (CC-3171) supplemented with Lonza´s Bronchial Epithelial Cell Growth Medium bullet kit (BEGM) (CC-4175), and grown in collagen coated T-75 and T-175 tissue culture flasks as required (Becton Dickinson 356485 and 356487). Subculturing after trypsinization and amplification was performed using Lonza´s reagent pack subculture reagents (CC-5034) following the manufacturer´s instructions. CHO-K1 and THP-1 cells were purchased from the ATCC through LGC standards (ATCC CCL-61 and TIB-202 respectively). The LAD2 cell line is a human mast cell line established at the National Institutes of Health (Bethesda, Maryland, U.S.).
Quantification of enzymatic p38 activity and p38-dependent TNF production in THP-1 cells was performed as previously described. Enzymatic Syk kinase activity assays and Syk dependent LAD2 cells degranulation assays were performed as previously described. PI3Kδ dependent pAkt phosphorylation in macrophage colony-stimulating factor (M-CSF) stimulated THP-1 cells was measured as previously described.

Syk = Syk (Homo sapiens, UniProt P43405); assay: Enzymatic Syk kinase activity assay; format: biochemical
[3] = Homo sapiens, NHBE, 24 h, NHBE cells donor #1, poly I:C / IL-4, 24h, geometric mean, read-out: Inhibition of TSLP protein production (IC50, μM) (95% CI)
[4] = individual values, donor #1, read-out: Inhibition of TSLP production in NHBE (IC50)
[5] = Homo sapiens, LAD2, geometric mean, read-out: Activity in reference cell based assay (IC50, μM) (95% CI) LAD2 cells degranulation
[6] = Homo sapiens, LAD2, individual values, read-out: Cellular activity (IC50, mM) LAD2 cells degranulation
[7] = individual values, read-out: Cellular activity (IC50, mM) LAD2 cells degranulation
[8] = individual values, read-out: Biochemical activity (IC50, mM) (Syk)

Structure (SMILES): COc1ccc(N(C)c2nc(C)nc3ccccc23)cc1 [compound 16]
IC50 (CHO-K1 cells; Cricetulus griseus, CHO-K1, geometric mean, read-out: Inhibition of CHO viability (IC50, μM) (95% CI)): 28.8 µM
Inhibition of CHO viability % at 3.12 micromolar (CHO-K1 cells; individual values, 3.12 micromolar): 1.13% and 6.28% and -14.28% and -12.18%
IC50 [1, 3]: 0.007 µM

Structure (SMILES): C[C@@H]1CCN(C(=O)CC#N)C[C@@H]1N(C)c1ncnc2[nH]ccc12 [Tofacitinib, reference compound]
Inhibition of CHO viability at [25 μM] % Inhibition ± SD (CHO-K1 cells; 25 μM): 0.37 ± 4.3%

Structure (SMILES): CO[C@H]1C[C@@H]2CC[C@@H](C)[C@@](O)(O2)C(=O)C(=O)N2CCCC[C@H]2C(=O)O[C@H]([C@H](C)C[C@@H]2CC[C@@H](OCCO)[C@H](OC)C2)CC(=O)[C@H](C)/C=C(\C)[C@@H](O)[C@@H](OC)C(=O)[C@H](C)C[C@H](C)/C=C/C=C/C=C/1C [Everolimus, reference compound]
IC50 (mTOR): 1 to 2 nM
Inhibition of CHO viability % Inhibition ± SD at 3.12 μM (CHO-K1 cells; 3.12 μM): -0.16% ± 2.3 (n = 4)
inhibition at 0.031 µM ([1]; Homo sapiens, 0.031 μM, NHBE donor #1, read-out: Inhibition of TSLP protein production % Inhibition ± SD at): 79.4%
Inhibition of TSLP production in NHBE (% as indicated) ([1]; individual values, donor #1): 62.23% and 73.18% and 78.84% and 103.38%

IC50 [1, 3]: 0.101 µM
IC50 [1, 4]: 0.121 µM and 0.062 µM and 0.141 µM
Structure (SMILES): COc1ccc(N(C)c2nc(NC/C=C(\C)CCC=C(C)C)nc3ccccc23)cc1 [compound 6]
% Inhibition of mRNA at [4 μM] ± SD [2]: 95.04 ± 0.77%
% Inhibition of mRNA [2]: 95.589% and 94.492%

IC50 (LAD2 cells degranulation; [5]): 0.403 µM
IC50 (LAD2 cells degranulation; [6]): 0.409 µM
IC50 (LAD2 cells degranulation; [7]): 0.398 µM
IC50 [1, 3]: 0.359 µM
IC50 [1, 4]: 0.237 µM and 0.804 µM and 0.244 µM
IC50 (Syk; [8]): 209 nM and 159 nM
Structure (SMILES): Nc1ncc(-c2ccc3cn[nH]c3c2)nc1C(=O)NC1C2CC3CC1CC(O)(C3)C2 (stereo not shown) [compound 14]
Inhibition of CHO viability % Inhibition ± SD at 3.75 μM (CHO-K1 cells): 42 % ± 10
Inhibition of CHO viability % at 3.75 micromolar (CHO-K1 cells; individual values): 51.55% and 51.37% and 30.13% and 37.95%

IC50 (LAD2 cells degranulation; [5]): 0.118 µM
IC50 (LAD2 cells degranulation; [6]): 0.124 µM
IC50 (LAD2 cells degranulation; [7]): 0.113 µM
IC50 [1, 3]: 0.277 µM
IC50 [1, 4]: 0.584 µM and 0.198 µM and 0.184 µM
IC50 (Syk; geometric mean, read-out: Activity in reference biochemical assay (IC50, μM) (95% CI) Syk): 33 nM
IC50 (Syk; [8]): 33.8 nM and 33.1 nM
Structure (SMILES): COc1cc(-c2cnn(C)c2)cc(-c2cnc(N)c(C(=O)N[C@@H]3[C@@H]4C[C@@H]5C[C@H]3C[C@@](O)(C5)C4)n2)c1 [compound 10]
Inhibition of CHO viability % Inhibition ± SD at 3.75 μM (CHO-K1 cells): 35.3 % ± 5.5
Inhibition of CHO viability % at 3.75 micromolar (CHO-K1 cells; individual values): 42.5% and 36.2% and 31.8% and 30%

Structure (SMILES): C[C@@H]1O[C@@H](O[C@H]2C[C@@H](O)[C@]3(CO)[C@H]4[C@H](O)C[C@]5(C)[C@@H](C6=CC(=O)OC6)CC[C@]5(O)[C@@H]4CC[C@]3(O)C2)[C@H](O)[C@H](O)[C@H]1O [Ouabain, reference compound]
IC50 [1, 3]: 0.016 µM
IC50 ([1]; Homo sapiens, NHBE, individual values, donor #1, read-out: Inhibition of TSLP production in NHBE (IC50)): 0.022 µM
IC50 [1, 4]: 0.013 µM and 0.014 µM
% Inhibition of mRNA at [4 μM] ± SD [2]: 94.64 ± 0.33%
% Inhibition of mRNA [2]: 94.409% and 94.877%
